This is an account of results in patent EP2156835A1, “New therapeutic use of drotaverine” (Sanofi-Aventis, priority 2008, dated 2010).

The test has as its system human isolated detrusor muscle. Briefly: Relaxation of U46619-induced plateau of contraction in human isolated detrusor muscle strips (organ bath). The settings on record: for Emax at 100 µM / EC50: Homo sapiens; for Emax at 100 µM: at the concentration of 100 µM, percent relaxation of 1 µM U46619 plateau, 10 µM forskolin taken as 100% relaxation, read-out: maximal relaxant effect (Emax); for EC50: mean, relaxation of plateau of contraction induced by 1 µM U46619 after priming with 0.1 µM forskolin, CRC 0.03 - 100 µM, non linear regression fit, read-out: pEC50 (-log EC50) (converted). As for the experimental part:
The detrusor muscle was separated from mucosa and adventitia and cut into small strips which were mounted, under 1 g initial tension, in 5 mL glass organ baths containing oxygenated Krebs-Henseleit solution (composition in mM: NaCl 114, KCl 4.7, CaCl2 2.5, MgS04 1.2, KH2PO4 1.2, NaHCO3 25, glucose 11.7) kept at 37°C. Tissues were allowed to equilibrate for at least 60 minutes during which time the Krebs solution was replaced every 15 min. After the stabilization period, a reference contraction to 80 mM KCl was performed on each strip. Tissues having a contraction less than 1 g were discarded. After wash-outs and a further 45 min of re-equilibration, during which the resting tension was adjusted periodically, each strip was primed with 0.1 µM forskolin, an adenylyl cyclise activator, for 10 min then recontracted with 1 µM U46619 for at least 20 min, until a stable plateau of contraction was obtained. Strips having a plateau of contraction less than 0.2 g were discarded. After obtaining a stable plateau of contraction, concentration-responses curves (CRC) to drotaverine and rolipram (0.03 - 100 µM) or the common vehicle (DMSO from 0.003 to 1 % in the organ bath) were performed. At the end of the CRC, the maximal relaxant effect for each strip was determined following application of 10 µM forskolin into the organ baths. Only one CRC to each substance or solvent was tested in a single strip. CRCs were constructed using 8 bladder strips from 4 different patients. Results were expressed as percent relaxation of the plateau of contraction induced by 1 µM U46619, with respect to the maximal effect obtained with 10 µM forskolin taken as 100% relaxation.
All CRCs were fitted by non linear regressions using the software GraphPad Prism® version 4.0 to obtain the following parameters: Emax: Maximal relaxation induced by the tested substance; EC50: the concentration which induces 50% of the maximum effect, expressed as pEC50 (-log EC50). Comparisons of the CRCs were performed with two-way analysis of variance (ANOVA) statistical analysis test and Bonferroni post-test. All differences will be considered statistically significant when the null hypothesis can be rejected at a risk α of less than 0.05.

Usually Emax stands for the greatest response seen or fitted, relative to the assay's reference. The EC50 is the concentration that produces a half-maximal response. Regarding `COc1ccc(C2CNC(=O)C2)cc1OC1CCCC1` (stereo not shown) [rolipram], the Emax at 100 µM turned out to be 89.5 ± 2.68% and the EC50 was 0.151 µM. The “relaxation of U46619-induced human detrusor contraction” value (from 0.03 to 100 µM) is listed as “significant concentration-dependent relaxation”.

With `CCOc1ccc(C=C2NCCc3cc(OCC)c(OCC)cc32)cc1OCC` [drotaverine, 1-[(3,4-diethoxyphenyl)methylene]-6,7-diethoxy-1,2,3,4-tetrahydro-isoquinoline], the maximal response (Emax) at 100 µM was 80.8 ± 3.07% and the EC50 is 32.4 µM. In addition, for the setting “from 0.03 to 10 µM”, the “relaxation of U46619-contracted detrusor strips” value was “slight relaxation”. In addition, the “relaxation of U46619-induced detrusor muscle contraction” value (from 30 to 100 µM) is “significant concentration-dependent relaxation”.
